pIC50: −log10 of the molar value.
Molecular target: histone deacetylase (HDAC)
Experiment: Inhibition of Histone Deacetylase Enzymatic Activity
Assay type: biochemical
Settings: substrate Boc-Lys(Ac)-AMC, Fluor-de-Lys developer, 37° C., 20 min; against one or more of HDAC-1 to HDAC-11, SirT1 to SirT7 (isoform not given); read-out: HDAC Inhibitory Activity (IC50)
Procedure: The following protocol is used to assay the compounds of the invention. In the assay, the buffer used is 25 mM HEPES, pH 8.0, 137 mM NaCl, 2.7 mM KCl, 1 mM MgCl2 and the substrate is Boc-Lys(Ac)-AMC in a 50 mM stock solution in DMSO. The enzyme stock solution is 4.08 μg/mL in buffer.
The compounds are pre-incubated (2 μl in DMSO diluted to 13 μl in buffer for transfer to assay plate) with enzyme (20 μl of 4.08 μg/mL) for 10 min at room temperature (35 μl pre-incubation volume). The mixture is pre-incubated for 5 min at room temperature. The reaction is started by bringing the temperature to 37° C. and adding 16 μl substrate. Total reaction volume is 50 μl. […] A plate is incubated in the dark for 10 min at room temperature before reading (λEX=360 nm, λEm=470 nm, Cutoff filter at 435 nm).
In the table, “A” indicates inhibitory activity at a concentration of <0.05 μM; “B” indicates inhibitory activity at a concentration >0.05 μM but <0.5 μM, “C” indicates inhibitory activity at >0.5 μM but <2 μM and “D” indicates inhibitory activity at a concentration of >2 μM but <10 μM.

Compound `O=C(CCOC1C[C@@H](C(=O)Nc2cccc3cccnc23)N(C(=O)OCc2ccccc2)C1)NO` (stereo in doubt) [Compound 112d, (2S,4S)-benzyl 4-(3-(hydroxyamino)-3-oxopropoxy)-2-(quinolin-8-ylcarbamoyl) pyrrolidine-1-carboxylate] has a pIC50 of 6.30 to 7.30.
For `CC(C)[C@@H]1Nc2ccc(C(=O)NO)cc2NC1=O` [Compound 4a, (S)-1,2,3,4-Tetrahydro-N-hydroxy-2-isopropyl-3-oxoquinoxaline-6-carboxamide], the pIC50 was 5.00 to 5.70.
In the case of `CSCC[C@@H]1Nc2ccc(C(=O)NO)cc2NC1=O` [Compound 4b, (S)-1,2,3,4-tetrahydro-N-hydroxy-2-(2-(methylthio)ethyl)-3-oxoquinoxaline-6-carboxamide], the pIC50 was 5.00 to 5.70.
Work on `O=C(NO)c1ccc2c(c1)NC(=O)[C@H](Cc1c[nH]c3ccccc13)N2` [Compound 4c, (S)-2-((1H-indol-3-yl)methyl)-1,2,3,4-tetrahydro-N-hydroxy-3-oxoquinoxaline-6-carboxamide] yielded a pIC50 of 5.70 to 6.30.
In the case of `CCC(C)[C@@H]1Nc2ccc(C(=O)NO)cc2NC1=O` (stereo partly drawn) [Compound 4d, (S)-2-sec-butyl-1,2,3,4-tetrahydro-N-hydroxy-3-oxoquinoxaline-6-carboxamide], the pIC50 was 5.00 to 5.70.
`CC(C)[C@H]1Nc2ccc(C(=O)NO)cc2NC1=O` [Compound 4e, (R)-1,2,3,4-tetrahydro-N-hydroxy-2-isopropyl-3-oxoquinoxaline-6-carboxamide] was tested, and the pIC50 was 5.00 to 5.70.
In the case of `O=C(NO)c1ccc2c(c1)NC(=O)[C@@H](Cc1c[nH]c3ccccc13)N2` [Compound 4f, (R)-2-((1H-indol-3-yl)methyl)-1,2,3,4-tetrahydro-N-hydroxy-3-oxoquinoxaline-6-carboxamide], the pIC50 was 5.00 to 5.70.
With `O=C(NO)c1ccc2c(c1)NC(=O)[C@H](Cc1cn(C(c3ccccc3)(c3ccccc3)c3ccccc3)cn1)N2` [Compound 4g, (S)-1,2,3,4-tetrahydro-N-hydroxy-3-oxo-2-((1-trityl-1H-imidazol-4-yl)methyl)quinoxaline-6-carboxamide] the pIC50 was 5.00 to 5.70.
`CC(C)(C)Oc1ccc(C[C@@H]2Nc3ccc(C(=O)NO)cc3NC2=O)cc1` [Compound 4h, (S)-2-(4-tert-butoxybenzyl)-1,2,3,4-tetrahydro-N-hydroxy-3-oxoquinoxaline-6-carboxamide] gave a pIC50 of 5.00 to 5.70.
In the case of `O=C(NO)c1ccc2c(c1)NC(=O)[C@H](Cc1ccccc1)N2` [Compound 4i, (S)-2-Benzyl-1,2,3,4-tetrahydro-N-hydroxy-3-oxoquinoxaline-6-carboxamide], the pIC50 was 5.00 to 5.70.
`CC(C)C[C@@H]1Nc2ccc(C(=O)NO)cc2NC1=O` [Compound 4k, (S)-1,2,3,4-Tetrahydro-N-hydroxy-2-isobutyl-3-oxoquinoxaline-6-carboxamide] was tested, and the pIC50 was 5.00 to 5.70.
In the case of `Cn1cc(C[C@@H]2Nc3ccc(C(=O)NO)cc3NC2=O)c2ccccc21` [Compound 4l, (S)-1,2,3,4-tetrahydro-N-hydroxy-2-((1-methyl-1-H-indol-3-yl)methyl)-3-oxoquinoxaline-6-carboxamide], the pIC50 was 5.70 to 6.30.
In the case of `Nc1ccccc1NC(=O)c1ccc2c(c1)NC(=O)[C@H](Cc1c[nH]c3ccccc13)N2` [Compound 5c, (S)-2-((1H-indol-3-yl)methyl)-N-(2-aminophenyl)-1,2,3,4-tetrahydro-3-oxoquinoxaline-6-carboxamide], the pIC50 was 5.00 to 5.70.
`O=C(NO)c1ccc2c(c1)NC(=O)[C@H](Cc1ccc(O)cc1)N2` [Compound 6h, (S)-2-(4-Hydroxybenzyl)-1,2,3,4-tetrahydro-N-hydroxy-3-oxoquinoxaline-6-carboxamide] gave a pIC50 of 5.00 to 5.70.
In the case of `COc1ccc(CN2c3ccc(C(=O)NO)cc3NC(=O)[C@@H]2C(C)C)cc1` [Compound 8, (S)-1-(4-Methoxybenzyl)-1,2,3,4-tetrahydro-N-hydroxy-2-isopropyl-3oxoquinoxaline-6-carboxamide], the pIC50 was 5.70 to 6.30.
`CC(C)[C@@H]1Nc2ccc(C(=O)NCCCCCC(=O)NO)cc2NC1=O` [Compound 13, (S)—N-(5-(Hydroxycarbamoyl)pentyl)-1,2,3,4-tetrahydro-2-isopropyl-3-oxoquinoxaline-6-carboxamide] showed a pIC50 of 6.30 to 7.30.
With `CC(C)[C@H]1C(=O)Nc2cc(C(=O)NO)ccc2N1Cc1ccc(F)cc1` [Compound 16a, (S)-1-(4-fluorobenzyl)-N-hydroxy-2-isopropyl-3-oxo-1,2,3,4-tetrahydroquinoxaline-6-carboxamide] the pIC50 was 5.00 to 5.70.
With `CC(C)[C@H]1C(=O)Nc2cc(C(=O)NO)ccc2N1Cc1ccc(O)cc1` [Compound 16b, (S)-1-(4-hydroxybenzyl)-1,2,3,4-tetrahydro-N-hydroxy-2-isopropyl-3-oxoquinoxaline-6-carboxamide] the pIC50 was 5.70 to 6.30.
Compound `CC(C)[C@H]1C(=O)Nc2cc(C(=O)NO)ccc2N1CCCc1ccccc1` [Compound 16c, (S)-1,2,3,4-tetrahydro-N-hydroxy-2-isopropyl-3-oxo-1-(3-phenylpropyl)quinoxaline-6-carboxamide] has a pIC50 of 5.70 to 6.30.
With `CC(C)[C@H]1C(=O)Nc2cc(C(=O)NO)ccc2N1Cc1ccc(C(=O)O)cc1` [Compound 16d, 4-(((S)-7-(hydroxycarbamoyl)-2,3-dihydro-3-isopropyl-2-oxoquinoxalin-4(1H)-yl)methyl)benzoic acid] the pIC50 was 5.00 to 5.70.
`CC(C)[C@H]1C(=O)Nc2cc(C(=O)NO)ccc2N1Cc1cccs1` [Compound 16e, (S)-1,2,3,4-tetrahydro-N-hydroxy-2-isopropyl-3-oxo-1-((thiophen-2-yl)methyl)quinoxaline-6-carboxamide] was tested, and the pIC50 was 5.00 to 5.70.
With `CC(C)[C@H]1C(=O)Nc2cc(C(=O)NO)ccc2N1Cc1ccc(C(=N)NO)cc1` [Compound 16f, (S)—N-hydroxy-1-(4-(N-hydroxycarbamimidoyl)benzyl)-2-isopropyl-3-oxo-1,2,3,4-tetrahydroquinoxaline-6-carboxamide] the pIC50 was 6.30 to 7.30.
`CC(C)[C@H]1C(=O)Nc2cc(C(=O)NO)ccc2N1Cc1ccccc1` [Compound 16g, (S)-1-benzyl-1,2,3,4-tetrahydro-N-hydroxy-2-isopropyl-3-oxoquinoxaline-6-carboxamide] was tested, and the pIC50 was 5.00 to 5.70.
With `CC(C)[C@H]1C(=O)Nc2cc(C(=O)NO)ccc2N1Cc1ccc2ccccc2c1` [Compound 16h, (S)-1,2,3,4-tetrahydro-N-hydroxy-2-isopropyl-1-((naphthalen-3-yl)methyl)-3-oxoquinoxaline-6-carboxamide] the pIC50 was 5.70 to 6.30.
In the case of `CC(C)[C@H]1C(=O)Nc2cc(C(=O)NO)ccc2N1S(=O)(=O)c1ccccc1` [Compound 18a, (S)—N-hydroxy-2-isopropyl-3-oxo-1-(phenylsulfonyl)-1,2,3,4-tetrahydroquinoxaline-6-carboxamide], the pIC50 was 5.00 to 5.70.
With `CC(C)[C@H]1C(=O)Nc2cc(C(=O)NO)ccc2N1S(=O)(=O)c1ccc(-c2ccccc2)cc1` [Compound 18b, (S)—N-hydroxy-1-(biphenyl-4-sulfonyl)-2-isopropyl-3-oxo-1,2,3,4-tetrahydroquinoxaline-6-carboxamide] the pIC50 was 5.70 to 6.30.
`Cc1cc(C)c(S(=O)(=O)N2c3ccc(C(=O)NO)cc3NC(=O)[C@@H]2C(C)C)c(C)c1` [Compound 18c, (S)—N-hydroxy-2-isopropyl-3-oxo-1-(2,4,6-trimethybenzenesulfonyl)-1,2,3,4-tetrahydroquinoxaline-6-carboxamide] was tested, and the pIC50 was 5.00 to 5.70.
`CC(C)[C@H]1C(=O)Nc2cc(C(=O)NO)ccc2N1S(=O)(=O)c1cccc2ccccc12` [Compound 18f] showed a pIC50 of 5.70 to 6.30.
